Laboratory results as given in PMC10011573, “Development of novel broad-spectrum antimicrobial lipopeptides derived from plantaricin NC8 β” (Scientific Reports, 2023).
Non-standard residues stand in square brackets, D forms with d. Residues, ends and D or L forms follow the SMILES beside them. *: point of attachment. Heptanoyl = CCCCCCC(=O)*; Hexanoyl = CCCCCC(=O)*

How the values were obtained:
[1] = Carboxyfluorescein release assay, bacterial liposome model; assay type: biochemical; conditions: 75:25 POPC:POPG liposomes, 25 µM lipid, 10 mM PBS pH 7.4, 10^–5–10^2 µM peptide, 60 min, fluorescence, Hill fit, n = 3; read-out: EC50 Bacterial (concentration that triggers 50% CF release)
Protocol: (§1) Liposomes were prepared by thin-film hydration method. Lipids stock solutions (10 mg/ml in chloroform, Avanti Polar Lipids, Inc., Alabaster, United States) of the lipids 1-palmitoyl-2-oleoyl-sn-glycero-3-phosphocholine (POPC), 1-palmitoyl-2-oleoyl-sn-glycero-3-phospho-L-serine (POPS), 1-Hexadecanoyl-2-(9Z-Octadecenoyl)-sn-Glycero-3-Phosphoglycerol (POPG) and Cholesterol (Chol) were employed. Bacterial liposomes were prepared with a 75:25 ratio of POPC:POPG and mammalian liposomes were prepared with a 65:5:30 ratio of POPC:POPS:Chol. Lipid solutions were thoroughly homogenised, and the solvent was evaporated with the use of a dry N2 steam to yield a lipid cake. […] The lipid film was subsequently hydrated with a 5(6)-CF solution (50 mM CF, 10 mM PBS, 90 mM NaCl, pH 7.4). Following a 10 min incubation on orbital shaker (50 min^−1), the solution was vortexed for 60 s on medium speed. A mini extruder (Avanti Polar Lipids, Inc., United States) was employed and 21 extrusions were performed through a 0.1 µm filter membrane (Nuclepore track-etched hydrophilic membrane, Cytiva, Whatman, MA, United States), resulting in monodispersed unilamellar liposomes. Directly before use the liposomes were purified from unencapsulated CF by filtration through a gel filtration column (PD Minitrap G-25 column, Cytiva, United States), against PBS buffer (10 mM, pH 7.4).
(§2) Peptide and lipopeptide activity towards liposome models were evaluated using a carboxyfluorescein (CF) release assay. Liposomes were diluted in PBS (10 mM, pH 7.4) to a final lipid concentration of 25 µM and incubated with peptides (10^–5–10^2 µM) in a 96-well plate (n = 3). CF release was monitored using an Infinite M1000 PRO plate reader every 2.5 min for 1 h. Full (100%) CF release was obtained by addition of 1% Triton X-100 solution followed by 10 min incubation. CF release percentage was evaluated according to the formula 100 * (F − F0)/(FT − F0), where F indicates the instantaneous fluorescence, FT the total fluorescence and F0 the background fluorescence prior to peptide addition. Data were fitted to a Hill-1 curve using MATLAB R2019a (The MathWorks Inc., Natick, Massachusetts, United States) and the half maximum effective concentration (EC50) was extracted.

[2] = tested on: human erythrocytes; assay: Hemolytic activity; assay type: cell-based; conditions: 15% suspension in PBS, 1 h, 37 °C, absorbance 540 nm, highest tested concentration 100 µM
Protocol: The hemolytic activity of the lipopeptides was investigated by collecting blood from healthy volunteers in heparinized vacutainers. Briefly, the blood was centrifuged at 600 × g for 5 min and the erythrocyte pellet was washed three times in PBS. The cells were then suspended in PBS and added to 96-well plates (15% erythrocyte suspension/well), containing the lipopeptides with two-fold serial dilution. The plates were incubated for 1 h at 37 °C followed by centrifugation for 5 min at 900×g and absorbance measurement of the supernatants at 540 nm. Hemolytic activity (%) was calculated by subtracting the negative control from all values and normalization against the positive control (0.5% Triton X-100), that was set to 100%. All experiments, each in duplicate, were repeated three times.

[3] = tested on: E. coli (K-12 MG1655); conditions: Table 3; K-12 MG1655; broth microdilution, 50:50 PBS/LB-broth, 200 µL, 20 h, 37 °C
Protocol: (§3) S. aureus (ATCC 29213, MSSA, ATCC, Manassas, VA), E. coli (K-12 MG1655) and clinical isolates of S. aureus, E. coli, E. faecium, K. pneumoniae, A. baumannii, P. aeruginosa and E. cloacae obtained from the Department of Laboratory Medicine at Örebro University Hospital were streaked on Luria–Bertani (LB) agar plates and incubated at 37 °C overnight. Single colonies were inoculated into 5 ml of LB broth and incubated on a shaker (400 rpm) at 37 °C overnight. The bacterial concentrations were determined by viable count and were adjusted to correlate with approximately 10^9 CFU/ml.
(§4) The broth microdilution method was used to determine minimal inhibitory concentration (MIC) and minimal bactericidal concentration (MBC), in accordance with the EUCAST standards for the broth microdilution method. Two-fold serial dilutions of the lipopeptides were used, and the final concentrations ranged from 0.19 to 100 µM. In brief, two-fold serial dilutions of the lipopeptides were performed in a 96-well plate in PBS, with a final volume of 100 µl per well, after which 100 µl of LB-broth media containing approximately 5 × 10^5 CFU/ml of bacteria was added to each well. The plate was then incubated for 20 h in 37 °C on a shaker (400 rpm). The effect of lipopeptide-antibiotic combinations was investigated by performing checkerboard assays. The assays were performed in accordance with the MIC and MBC tests conducted above, but with horizontal and longitudinal two-fold serial dilutions of the tested compounds. […] The fractional inhibitory concentration (FIC) and fractional bactericidal concentration (FBC) were calculated by the equation (MIC or MBC of peptide in combination/MIC or MBC of peptide alone) + (MIC or MBC of antibiotic in combination/MIC or MBC of antibiotic alone). Synergy was defined as FIC/FBC ≤ 0.5, additive when 0.5 < FIC/FBC ≤ 1, indifferent when 1 < FIC/FBC < 2 and antagonistic when FIC/FBC ≥ 2. All experiments were repeated at least three times.

[4] = tested on: S. aureus (ATCC 29213, MSSA); conditions: ATCC 29213, 20 h
Protocol: as §3, §4

[5] = Carboxyfluorescein release assay, mammalian liposome model; assay type: biochemical; conditions: 65:5:30 POPC:POPS:Chol. liposomes, 25 µM lipid, 10 mM PBS pH 7.4, 10^–5–10^2 µM peptide, 60 min, fluorescence, Hill fit, n = 3; read-out: EC50 Mammalial (concentration that triggers 50% CF release)
Protocol: as §1, §2

[6] = tested on: S. aureus (ATCC 29213); assay type: cell-based; conditions: Table 6; ATCC 29213; checkerboard assay, 50:50 PBS/LB-broth, 200 µL
Protocol: as §4, with “Two-fold serial dilutions of the lipopeptides were used, and the final concentrations ranged from 0.19 to 100 µM.” left out, “Synergy was defined as FIC/FBC ≤ 0.5, additive when 0.5 < FIC/FBC ≤ 1, indifferent when 1 < FIC/FBC < 2 and antagonistic when FIC/FBC ≥ 2.” left out

Row | SMILES | EC50 [1] [nM] | E. coli MIC [3] [µM] | S. aureus MIC [4] [µM] | EC50 [5] [nM] | HC, hemolytic concentration at 5% hemolytic activity [2] [µM] | E. coli MBC [3] [µM] | S. aureus MBC [4] [µM] | S. aureus MBC, antibiotic alone [6] [µg/mL] | S. aureus MIC, antibiotic alone [6] [µg/mL]
1 | CCCCCC(=O)N[C@H](CC(C)C)C(=O)NCC(=O)N[C@H](CC(C)C)C(=O)N[C@H](CCCCN)C(=O)N[C@H](CC(C)C)C(=O)N[C@H](CC(C)C)C(=O)N[C@H](Cc1c[nH]c2ccccc12)C(=O)N[C@H](CO)C(=O)N[C@H](C)C(=O)N[C@H](Cc1ccc(O)cc1)C(=O)N[C@H](CCCCN)C(=O)N[C@H](Cc1c[nH]cn1)C(=O)N[C@H](CCCNC(=N)N)C(=O)N[C@H](CCCCN)C(=O)N[C@@H](C(=O)N[C@H](CC(C)C)C(N)=O)[C@H](C)O [D-6-C6-Leu] (Hexanoyl-[dL]G[dL][dK][dL][dL][dW][dS][dA][dY][dK][dH][dR][dK][dT][dL]-NH2) | 130 | 3.1 | 1.5 | 1220 | 65 | 3.1 | 1.5 | – | –
2 | CCCCCC(=O)N[C@@H](CC(C)C)C(=O)NCC(=O)N[C@@H](CC(C)C)C(=O)N[C@@H](CCCCN)C(=O)N[C@@H](CC(C)C)C(=O)N[C@@H](CC(C)C)C(=O)N[C@@H](Cc1c[nH]c2ccccc12)C(=O)N[C@@H](CO)C(=O)N[C@@H](C)C(=O)N[C@@H](Cc1ccc(O)cc1)C(=O)N[C@@H](CCCCN)C(=O)N[C@@H](Cc1c[nH]cn1)C(=O)N[C@@H](CCCNC(=N)N)C(=O)N[C@@H](CCCCN)C(=O)N[C@H](C(=O)N[C@@H](CC(C)C)C(N)=O)[C@@H](C)O [L-6-C6-Leu] (Hexanoyl-LGLKLLWSAYKHRKTL-NH2) | 130 | 6.2 | 1.5 | 1210 | 60 | 6.2 | 3.1 | – | –
3 | CN[C@H](CC(C)C)C(=O)N[C@H]1C(=O)N[C@@H](CC(N)=O)C(=O)N[C@H]2C(=O)N[C@H]3C(=O)N[C@H](C(=O)N[C@H](C(=O)O)c4cc(O)cc(O)c4-c4cc3ccc4O)[C@H](O)c3ccc(c(Cl)c3)Oc3cc2cc(c3O[C@@H]2O[C@H](CO)[C@@H](O)[C@H](O)[C@H]2O[C@H]2C[C@](C)(N)[C@H](O)[C@H](C)O2)Oc2ccc(cc2Cl)[C@H]1O [Vancomycin] | – | – | – | – | – | – | – | 0.78 | 0.78

More lines, in order of falling EC50 [1], values ahead:

Row | EC50 [1] [nM] | E. coli MIC [3] [µM] | S. aureus MIC [4] [µM] | EC50 [5] [nM] | SMILES | HC, hemolytic concentration at 5% hemolytic activity [2] [µM] | E. coli MBC [3] [µM] | S. aureus MBC [4] [µM] | S. aureus MBC, antibiotic alone [6] [µg/mL] | S. aureus MIC, antibiotic alone [6] [µg/mL]
4 | 290 | 3.1 | 1.5 | 1470 | CCCCCCC(=O)N[C@H](CC(C)C)C(=O)NCC(=O)N[C@@H](C(=O)N[C@H](CCCCN)C(=O)N[C@@H](C(=O)N[C@H](CC(C)C)C(=O)N[C@H](Cc1c[nH]c2ccccc12)C(=O)N[C@H](CO)C(=O)N[C@H](C)C(=O)N[C@H](Cc1ccc(O)cc1)C(=O)N[C@H](CCCCN)C(=O)N[C@H](Cc1c[nH]cn1)C(=O)N[C@H](CCCNC(=N)N)C(=O)N[C@H](CCCCN)C(=O)N[C@@H](C(=O)N[C@@H](C(N)=O)[C@H](C)CC)[C@H](C)O)[C@H](C)CC)[C@H](C)CC [D-6-C7] (Heptanoyl-[dL]G[dI][dK][dI][dL][dW][dS][dA][dY][dK][dH][dR][dK][dT][dI]-NH2) | 65 | 6.2 | 3.1 | – | –
5 | 130 | 3.1 | 3.1 | 4990 | CCCCCC(=O)N[C@H](CC(C)C)C(=O)NCC(=O)N[C@@H](C(=O)N[C@H](CCCCN)C(=O)N[C@@H](C(=O)N[C@H](CC(C)C)C(=O)N[C@H](Cc1c[nH]c2ccccc12)C(=O)N[C@H](CO)C(=O)N[C@H](C)C(=O)N[C@H](Cc1ccc(O)cc1)C(=O)N[C@H](CCCCN)C(=O)N[C@H](Cc1c[nH]cn1)C(=O)N[C@H](CCCNC(=N)N)C(=O)N[C@H](CCCCN)C(=O)N[C@@H](C(=O)N[C@@H](C(N)=O)[C@H](C)CC)[C@H](C)O)[C@H](C)CC)[C@H](C)CC [D-6-C6] (Hexanoyl-[dL]G[dI][dK][dI][dL][dW][dS][dA][dY][dK][dH][dR][dK][dT][dI]-NH2) | > 100 | 3.1 | 3.1 | – | –
6 | 130 | 3.1 | 1.5 | 1020 | CCCCCCC(=O)N[C@H](CC(C)C)C(=O)NCC(=O)N[C@H](CC(C)C)C(=O)N[C@H](CCCCN)C(=O)N[C@H](CC(C)C)C(=O)N[C@H](CC(C)C)C(=O)N[C@H](Cc1c[nH]c2ccccc12)C(=O)N[C@H](CO)C(=O)N[C@H](C)C(=O)N[C@H](Cc1ccc(O)cc1)C(=O)N[C@H](CCCCN)C(=O)N[C@H](Cc1c[nH]cn1)C(=O)N[C@H](CCCNC(=N)N)C(=O)N[C@H](CCCCN)C(=O)N[C@@H](C(=O)N[C@H](CC(C)C)C(N)=O)[C@H](C)O [D-6-C7-Leu] (Heptanoyl-[dL]G[dL][dK][dL][dL][dW][dS][dA][dY][dK][dH][dR][dK][dT][dL]-NH2) | 35 | 3.1 | 1.5 | – | –
